What was measured:
[1] = tested on: Human primary hepatocytes (hHEPs); test: Senescence of human primary hepatocytes treated with KAT7 inhibitor; assay type: cell-based; conditions: 100 nM
Procedure: Human primary hepatocytes (hHEPs) were used as test cells (a product of Lonza, with an article No. of HUCPI), and the cells were treated with a DMSO solution of 100 nM of WM-3835, and DMSO was used as a control.

[2] = tested on: WS mesenchymal precursor cells (WS hMPCs); test: Senescence of WS hMPCs treated with KAT7 inhibitor; assay type: cell-based, human; conditions: 50 nM; passages 2-3 after treatment; DMSO control; FIGS. 6C-6D
Procedure: Passage-4 WS mesenchymal precursor cells (WS hMPCs) in example 1 were used as test cells, and the cells were treated with a DMSO solution of 50 nM of WM-3835. The WM-3835 (with a structural formula as shown in a of FIGS. 6A-6I) was synthesized by entrusting WuXi AppTec, and a DMSO solvent was used as a control.
After the treatment, the cells were continuously passaged to passages 2-3. The cells were collected to detect a KAT7 protein knockdown efficiency (FIG. 6B), and SA-β-gal staining of cell senescence markers and detection of a cell proliferation molecular marker (Ki67) were performed.

SMILES: Cc1cc(-c2ccccc2)cc(C(=O)NNS(=O)(=O)c2cccc(O)c2)c1F [WM-3835]
- expressions of inflammatory genes and SASP-associated genes (RNA-seq) ([1]; FIGS. 6E-6I): down-regulated
- expressions of metabolism-related genes (RNA-seq) ([1]; FIGS. 6E-6I): up-regulated
- senescence of hepatocytes (P15, IL6 by RT-qPCR) ([1]; cultured 8 d, compared with DMSO group): significantly delay the senescence of hepatocytes
- senescence of WS hMPCs (SA-β-gal staining, Ki67) [2]: can delay the senescence of WS hMPCs

Source: patent US20230416712A1, “APPLICATION OF SUBSTANCE THAT REDUCES THE CONTENT OR ACTIVITY OF KAT7 IN PREVENTING SENESCENCE AND TREATING HEPATIC FIBROSIS” (INSTITUTE OF ZOOLOGY, CHINESE ACADEMY OF SCIENCES, priority 2020, published 2023)
